Active and inactive are the calls of the source.
Tests used:
[1] = biological target: T1, Neuropeptide Y receptor type 1 (Homo sapiens, UniProt P25929); test: IC50 of human NPY-Y1 blockers – cell-based, dose response (AID 1277); format: functional
T1 sequence (P25929 whole entry): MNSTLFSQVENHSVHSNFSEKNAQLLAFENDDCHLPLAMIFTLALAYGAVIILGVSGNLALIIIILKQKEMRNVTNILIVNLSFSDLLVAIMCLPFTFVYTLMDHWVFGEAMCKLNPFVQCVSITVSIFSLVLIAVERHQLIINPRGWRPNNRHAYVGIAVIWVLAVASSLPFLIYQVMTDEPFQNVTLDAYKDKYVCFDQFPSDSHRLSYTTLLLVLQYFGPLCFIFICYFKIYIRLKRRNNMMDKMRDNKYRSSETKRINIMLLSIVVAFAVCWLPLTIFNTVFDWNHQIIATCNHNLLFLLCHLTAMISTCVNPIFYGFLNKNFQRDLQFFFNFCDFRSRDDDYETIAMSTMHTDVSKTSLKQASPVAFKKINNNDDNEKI

[2] = biological target: T2, Neuropeptide Y receptor type 2 (Homo sapiens, UniProt P49146); test: IC50 for human NPY-Y2 blockade – cell-based, counter-screen for NPY-Y1 antagonist project, dose response (AID 1278); format: functional
T2 sequence (P49146 whole entry): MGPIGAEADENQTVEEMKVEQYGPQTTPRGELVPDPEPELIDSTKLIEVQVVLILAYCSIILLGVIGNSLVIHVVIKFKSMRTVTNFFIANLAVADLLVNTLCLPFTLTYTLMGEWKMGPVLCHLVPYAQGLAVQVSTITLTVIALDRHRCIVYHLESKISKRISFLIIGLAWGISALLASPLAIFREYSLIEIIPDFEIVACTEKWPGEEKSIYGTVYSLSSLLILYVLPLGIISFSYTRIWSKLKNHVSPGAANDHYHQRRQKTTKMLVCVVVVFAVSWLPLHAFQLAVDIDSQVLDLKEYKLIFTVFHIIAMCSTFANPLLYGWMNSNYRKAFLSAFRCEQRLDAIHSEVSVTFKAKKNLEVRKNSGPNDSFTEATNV

[3] = biological target: ATP-sensitive inward rectifier potassium channel 1 (Homo sapiens, UniProt P48048); test: Kir1.1 channel inhibitor analog potency – cell-based, thallium flux, analog library, SAR follow-up (AID 435017); format: functional
[4] = CCR5-tropic HIV-1 fusion blockers – cell-based, CCR5-tropic Env, dose response (AID 2279); format: functional
[5] = biological target: 26S proteasome non-ATPase regulatory subunit 14 (Homo sapiens, UniProt O00487); test: inhibition of proteasome subunit RPN11 – biochemical, fluorescence polarization, uHTS hits, confirmation (AID 602368); format: functional
[6] = biological target: Serine/threonine-protein phosphatase (Homo sapiens, UniProt Q9BPW0); test: Counterscreen for inhibitors of PP1: fluorescence-based biochemical high throughput dose response assay to identify inhibitors of Protein Phosphatase 5 (PP5). [Related pubchem assays: 2034 (Summary (PP5 inhibitors)), 1987 (PP5 inhibitors in singlate), 2235 (PP1 inhibitors in singlate)]
[7] = biological target: T3, Small ubiquitin-related modifier 1 (Homo sapiens, UniProt P63165); test: SUMO1 protein-protein binding blockers, potency – biochemical, FRET, dose response (AID 624383); format: functional; conditions: read-out: IC50_Mean
Prothrombin = Prothrombin (Bos taurus, UniProt P00735); test: thrombin protease inhibitors – biochemical, fluorescence polarization, uHTS hits, dose response (AID 602369); format: functional
[8] = biological target: Serine/threonine-protein phosphatase PP1-alpha catalytic subunit (Homo sapiens, UniProt P62136); test: inhibition of protein phosphatase 1 activity – biochemical, fluorescence, dose response (AID 2403);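 note: phosphatase turnover of OMFP into fluorescent 3-O-methylfluorescein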
Genome polyprotein = Genome polyprotein (Hepatitis C virus, UniProt Q2Q167); test: disruption of hepatitis C core self-association – biochemical, TR-FRET, dose response (AID 2159); set-up: species or system Hepacivirus hominis;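 note: blocks dimerization of HCV core protein measured by TR-FRET between tagged core106 pairs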
[9] = biological target: T3, Small ubiquitin-related modifier 1; test: SUMO1 protein interaction blockers, potency – biochemical, fluorescence polarization, uHTS hits, dose response (AID 624382); format: functional; conditions: read-out: IC50_Mean
[10] = biological target: 72 kDa type IV collagenase (Homo sapiens, UniProt P08253); test: Dose Response validation of uHTS RPN11 inhibitor hits using a MMP-2 Fluorescence assay.; format: functional
Vero = test: host cell viability loss, Vero E6 – synthesized analogs, cytotoxicity control for West Nile virus antiviral project, SAR follow-up (AID 2244); format: functional; conditions: Chlorocebus sabaeus
[11] = A cytotoxicity screen of small molecule inhibitors of the PhoP region in Salmonella typhi identified in the primary screen. [Related pubchem assays: 1850, 1864, 1985 ]; format: functional

T3 sequence (P63165 whole entry): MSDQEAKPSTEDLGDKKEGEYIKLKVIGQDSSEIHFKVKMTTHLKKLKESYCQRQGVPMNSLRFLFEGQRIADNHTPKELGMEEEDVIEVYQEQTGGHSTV
72 kDa type IV collagenase, sequence (P08253 whole entry): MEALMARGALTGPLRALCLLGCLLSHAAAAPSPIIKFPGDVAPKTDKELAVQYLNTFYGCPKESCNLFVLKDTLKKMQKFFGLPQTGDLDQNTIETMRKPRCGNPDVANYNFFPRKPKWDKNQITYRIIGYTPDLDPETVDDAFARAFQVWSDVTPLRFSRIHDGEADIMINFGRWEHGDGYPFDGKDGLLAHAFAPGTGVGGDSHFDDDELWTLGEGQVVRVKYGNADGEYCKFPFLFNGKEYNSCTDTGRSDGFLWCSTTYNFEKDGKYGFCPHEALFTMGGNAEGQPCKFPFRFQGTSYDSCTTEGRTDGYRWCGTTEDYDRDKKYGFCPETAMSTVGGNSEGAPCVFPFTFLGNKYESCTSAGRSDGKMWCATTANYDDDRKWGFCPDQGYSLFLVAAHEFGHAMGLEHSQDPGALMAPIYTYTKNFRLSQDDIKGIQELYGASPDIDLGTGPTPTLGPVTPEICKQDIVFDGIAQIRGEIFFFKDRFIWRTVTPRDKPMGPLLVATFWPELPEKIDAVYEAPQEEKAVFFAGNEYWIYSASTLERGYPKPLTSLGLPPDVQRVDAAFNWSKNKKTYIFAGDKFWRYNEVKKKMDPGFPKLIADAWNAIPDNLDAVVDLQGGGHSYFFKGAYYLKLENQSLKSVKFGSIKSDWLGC
ATP-sensitive inward rectifier potassium channel 1, sequence (P48048 whole entry, the tested form may be a part): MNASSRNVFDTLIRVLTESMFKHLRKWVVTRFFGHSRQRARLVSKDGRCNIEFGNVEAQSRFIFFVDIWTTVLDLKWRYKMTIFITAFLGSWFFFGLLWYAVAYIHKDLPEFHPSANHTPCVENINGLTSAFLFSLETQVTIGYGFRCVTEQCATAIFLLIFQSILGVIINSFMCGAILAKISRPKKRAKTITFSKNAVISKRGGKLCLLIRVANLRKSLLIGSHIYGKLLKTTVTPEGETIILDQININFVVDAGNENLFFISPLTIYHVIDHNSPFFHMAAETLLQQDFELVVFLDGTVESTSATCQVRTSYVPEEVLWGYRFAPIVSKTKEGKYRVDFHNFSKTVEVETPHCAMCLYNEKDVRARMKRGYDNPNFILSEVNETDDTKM
Serine/threonine-protein phosphatase, sequence (Q9BPW0 whole entry): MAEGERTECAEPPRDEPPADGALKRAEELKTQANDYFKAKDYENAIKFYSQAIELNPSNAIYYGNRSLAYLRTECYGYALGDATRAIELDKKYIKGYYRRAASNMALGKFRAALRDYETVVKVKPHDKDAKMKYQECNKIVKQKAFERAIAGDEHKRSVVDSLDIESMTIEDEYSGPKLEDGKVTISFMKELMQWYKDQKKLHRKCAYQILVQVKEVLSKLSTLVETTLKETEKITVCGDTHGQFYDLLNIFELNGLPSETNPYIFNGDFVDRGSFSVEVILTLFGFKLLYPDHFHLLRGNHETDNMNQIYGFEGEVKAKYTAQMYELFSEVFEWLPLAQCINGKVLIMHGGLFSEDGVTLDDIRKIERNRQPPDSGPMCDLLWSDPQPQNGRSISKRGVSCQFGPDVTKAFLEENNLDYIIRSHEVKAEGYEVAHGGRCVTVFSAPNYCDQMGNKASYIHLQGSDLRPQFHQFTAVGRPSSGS
Serine/threonine-protein phosphatase PP1-alpha catalytic subunit, sequence (P62136 whole entry): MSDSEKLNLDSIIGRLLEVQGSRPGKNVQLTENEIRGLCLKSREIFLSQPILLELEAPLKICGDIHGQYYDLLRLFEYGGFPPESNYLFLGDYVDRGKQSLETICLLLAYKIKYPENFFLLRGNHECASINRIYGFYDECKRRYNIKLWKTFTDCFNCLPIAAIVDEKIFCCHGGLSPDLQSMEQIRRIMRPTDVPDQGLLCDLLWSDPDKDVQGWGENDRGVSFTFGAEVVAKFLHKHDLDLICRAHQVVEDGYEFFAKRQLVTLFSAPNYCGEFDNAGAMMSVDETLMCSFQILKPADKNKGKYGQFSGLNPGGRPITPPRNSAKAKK
Genome polyprotein, sequence (Q2Q167 whole entry): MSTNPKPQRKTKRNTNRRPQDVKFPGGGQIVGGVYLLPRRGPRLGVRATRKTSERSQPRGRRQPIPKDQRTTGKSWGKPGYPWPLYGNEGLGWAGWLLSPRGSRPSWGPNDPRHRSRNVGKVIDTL
26S proteasome non-ATPase regulatory subunit 14, sequence (O00487 whole entry): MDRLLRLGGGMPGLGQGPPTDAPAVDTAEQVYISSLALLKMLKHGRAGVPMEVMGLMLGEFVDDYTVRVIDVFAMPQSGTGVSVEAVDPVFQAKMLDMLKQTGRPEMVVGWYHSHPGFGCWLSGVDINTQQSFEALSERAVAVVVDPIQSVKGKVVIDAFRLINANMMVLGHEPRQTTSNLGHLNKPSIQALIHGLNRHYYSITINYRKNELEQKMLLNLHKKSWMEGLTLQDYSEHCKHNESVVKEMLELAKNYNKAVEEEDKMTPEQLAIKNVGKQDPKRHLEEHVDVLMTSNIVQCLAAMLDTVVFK

CNCc1cc(Cl)cc(OC)c1OC(C)C
IC50 [1]: > 35 µM (not active) | IC50 [2]: > 35 µM (not active)

O=[N+]([O-])c1ccc(CN2CCOCCOCCN(Cc3ccc([N+](=O)[O-])cc3)CCOCC2)cc1
IC50 [3]: 0.273 µM (active)

COc1ccc(C(=O)/C=C/c2cccc(OCc3ccccc3)c2)cc1CSCC(=O)O
IC50 [4]: 18.7 µM (active)

CCOc1ccc(NC(=O)c2ccc(NC(=O)COC(=O)c3ccc(NC(=O)CC#N)cc3)cc2)cc1
IC50 [5]: 15.9 µM (active) | IC50 [6]: > 67 µM (not active) | IC50 [7]: 2.11 µM (active) | IC50 (Prothrombin): 55.4 µM (active) | IC50 [8]: 6.8 µM (active) | IC50 (Genome polyprotein): > 49.8 µM (not active) | IC50 [9]: > 66.6 µM (inactive) | IC50 [10]: > 100 µM (inactive)

CCOc1ccc2nc(NC(=O)C(CCSC)NS(=O)(=O)c3cccs3)sc2c1 (stereo not given)
IC50 (cells): 2.48 µM (active)

O=C(Nc1nc(-c2ccc(Cl)cc2)cs1)c1ccc(I)cc1
CC50 (Vero): > 40 µM (active)

COc1cc(C)c(Cl)cc1S(=O)(=O)n1cnc(C)c1
EC50 [11]: > 50 µM (active)

Reference: ChEMBL document CHEMBL1201862, “PubChem BioAssay data set” (2004)
